# In patent US20230103250A1, “DRUG SUBSTANCE OF L[…] MEDICINAL COMPOSITION COMPRISING SAME” (Eisai R&D Management Co., Ltd., priority 2020, published 2023):
# Assay: Particle size (D90) of lemborexant active pharmaceutical ingredient by laser diffraction/scattering
# Type: physicochemical
# Conditions: for Particle size (D90 (μm)): pulverized lemborexant API lots, Table 1; for D90 (μm): after pulverization with 160UPZ (Example 1, Table 2), Microtrack MT3300EXII
# Experimental: The particle size of the granular material, which is a lemborexant active pharmaceutical ingredient, can be measured by a laser diffraction/scattering method.
# A sample suspension is prepared by dispersing about 30 mg of a lemborexant active pharmaceutical ingredient in 50 mL of a 0.1% polysorbate 20 aqueous solution as a dispersion solvent. The sample suspension is put into a diffractometer and an appropriate amount of dispersion solvent is added. The particle size distribution of the sample suspension is measured, and the value of the particle size of the sample is recorded as a cumulative diameter distribution.
# Particle size distribution measurement conditions for the diffractometer may be as follows.
# Number of measurements: 3 times
# Measurement time: 30 seconds
# Transparency: Transparent
# Particle refractive index: 1.81
# Solvent refractive index: 1.33
# The 90% cumulative diameter (D90) was measured with a particle size analyzer (Microtrack MT3300EXII). A sample suspension was prepared by dispersing about 30 mg of a lemborexant active pharmaceutical ingredient in 50 mL of a dispersion solvent 0.1% polysorbate 20 aqueous solution. The sample suspension was put into a particle size analyzer, and an appropriate amount of a dispersion solvent was added thereto. The particle size distribution of the sample suspension was measured, and the value of the particle size of the sample was recorded as a cumulative diameter distribution.
# The measurement conditions for the particle size analyzer are as follows.
# Flow rate: 50% Number of measurements: 3 times Measurement time: 30 seconds
# Particle refractive index: 1.81 Solvent refractive index: 1.33
smiles,measurement,setting,value
Cc1ncc(OC[C@@]2(c3cccc(F)c3)C[C@H]2C(=O)Nc2ccc(F)cn2)c(C)n1 [Lot 1],Particle size (D90 (μm)),listed as 1,47 μm
Cc1ncc(OC[C@@]2(c3cccc(F)c3)C[C@H]2C(=O)Nc2ccc(F)cn2)c(C)n1 [Lot 2],Particle size (D90 (μm)),listed as 2,18 μm
Cc1ncc(OC[C@@]2(c3cccc(F)c3)C[C@H]2C(=O)Nc2ccc(F)cn2)c(C)n1 [Lot 3],Particle size (D90 (μm)),listed as 3,48 μm
Cc1ncc(OC[C@@]2(c3cccc(F)c3)C[C@H]2C(=O)Nc2ccc(F)cn2)c(C)n1 [Lot 4],Particle size (D90 (μm)),listed as 4,32 μm
Cc1ncc(OC[C@@]2(c3cccc(F)c3)C[C@H]2C(=O)Nc2ccc(F)cn2)c(C)n1 [Lot 5],Particle size (D90 (μm)),listed as 5,39 μm
Cc1ncc(OC[C@@]2(c3cccc(F)c3)C[C@H]2C(=O)Nc2ccc(F)cn2)c(C)n1 [Lot 6],Particle size (D90 (μm)),listed as 6,23 μm
Cc1ncc(OC[C@@]2(c3cccc(F)c3)C[C@H]2C(=O)Nc2ccc(F)cn2)c(C)n1 [Lot 7],Particle size (D90 (μm)),listed as 7,40 μm
Cc1ncc(OC[C@@]2(c3cccc(F)c3)C[C@H]2C(=O)Nc2ccc(F)cn2)c(C)n1 [Lot 8],Particle size (D90 (μm)),listed as 8,35 μm
Cc1ncc(OC[C@@]2(c3cccc(F)c3)C[C@H]2C(=O)Nc2ccc(F)cn2)c(C)n1 [Lot 9],Particle size (D90 (μm)),listed as 9,34 μm
Cc1ncc(OC[C@@]2(c3cccc(F)c3)C[C@H]2C(=O)Nc2ccc(F)cn2)c(C)n1 [Lot S1],D90 (μm),listed as S1,98 μm
Cc1ncc(OC[C@@]2(c3cccc(F)c3)C[C@H]2C(=O)Nc2ccc(F)cn2)c(C)n1 [Lot S2],D90 (μm),listed as S2,79 μm
Cc1ncc(OC[C@@]2(c3cccc(F)c3)C[C@H]2C(=O)Nc2ccc(F)cn2)c(C)n1 [Lot S3],D90 (μm),listed as S3,64 μm
Cc1ncc(OC[C@@]2(c3cccc(F)c3)C[C@H]2C(=O)Nc2ccc(F)cn2)c(C)n1 [Lot S4],D90 (μm),listed as S4,56 μm
Cc1ncc(OC[C@@]2(c3cccc(F)c3)C[C@H]2C(=O)Nc2ccc(F)cn2)c(C)n1 [Lot S5],D90 (μm),listed as S5,110 μm
Cc1ncc(OC[C@@]2(c3cccc(F)c3)C[C@H]2C(=O)Nc2ccc(F)cn2)c(C)n1 [Lot S6],D90 (μm),listed as S6,20 μm
"Cc1ncc(OC[C@@]2(c3cccc(F)c3)C[C@H]2C(=O)Nc2ccc(F)cn2)c(C)n1 [lemborexant, (1R,2S)-2-(((2,4-dimethylpyrimidine-5-yl)oxy)methyl)-2-(3-fluorophenyl)-N-(5-fluoropyridin-2-yl)cyclopropanecarboxamide]",D90,API used for the tablets of Example 4,32 μm
